Several values for one entry are separate records, joined by “and”; a condition that tells them apart may be missing. Equal values may be shown once.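 Interpolation was linear, between the two tested concentrations surrounding the appropriate level; five concentrations were tested over 48 hours in 96-well plates. GI50: concentration for 50% inhibition of growth. The concentration for full growth arrest is given as TGI.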 Where a SMILES comes first, the peptide text is derived from it. Bridges are numbered along the chain shown (N, C = ends). [ ]: non-standard residue; d: D form. aThr = C[C@H](O)[C@H](N)C(=O)O Where only a bound is given, the exact number is not on record here.

Among the test systems are ACHN renal; PC-3 prostate; A498 renal; EKVX NSCLC; NCI-H460 lung; HCT-15 colon; UACC-62 melanoma; CAKI-1 renal; SK-MEL-5 melanoma; HS 578T breast.
Common to all, as to assay: growth of human tumour cells (NCI), 48 h

Take `CC(=O)NC1C(O[C@H]2C[C@H]3[C@@H]4CC=C5C[C@@H](O)CC[C@]5(C)[C@H]4CC[C@]3(C)[C@H]2[C@H](C)C(=O)CCC(C)C)OCC(O)C1O` (stereo not given in full): the GI50 with ACHN renal was 3.75 µM; with PC-3 prostate, 2.05 µM; in the assay with A498 renal, 0.977 µM; in the assay on EKVX NSCLC it was 1.97 µM; in the assay with NCI-H460 lung, 1.71 µM; in the assay on HCT-15 colon, 4.38 µM. Moreover, the GI50 in the assay with UACC-62 melanoma is 0.913 µM; in the assay with CAKI-1 renal, 1.53 µM; in the assay on SK-MEL-5 melanoma, 1.85 µM; in the assay with HS 578T breast, 0.88 µM. The TGI with ACHN renal was more than 42.5 µM; with PC-3 prostate it was 10.3 µM; with A498 renal it was 2.88 µM; with EKVX NSCLC, 9.37 µM; with NCI-H460 lung, 6.1 µM; in the assay on HCT-15 colon it was 10.5 µM. Moreover, the TGI in the assay on UACC-62 melanoma amounted to 2.21 µM; in the assay on CAKI-1 renal, 6.75 µM; in the assay with SK-MEL-5 melanoma it was 6.49 µM; in the assay with HS 578T breast, 4.09 µM.
In the case of `Cc1cc(Br)c(NC(=O)c2c(-c3c(Cl)cccc3Cl)noc2C)c(Br)c1`, the GI50 in the assay with ACHN renal, in the assay with PC-3 prostate, with A498 renal, with EKVX NSCLC, with NCI-H460 lung and in the assay with HCT-15 colon was more than 100 µM each time. Further, the GI50 is 14.3 µM in the assay with UACC-62 melanoma, 7.81 µM in the assay on CAKI-1 renal, more than 100 µM in the assay with SK-MEL-5 melanoma and 26.5 µM with HS 578T breast. For the same compound, the TGI in the assay on ACHN renal, in the assay with PC-3 prostate, with A498 renal, with EKVX NSCLC, with NCI-H460 lung and in the assay on HCT-15 colon was more than 100 µM each time. The TGI with UACC-62 melanoma, in the assay on CAKI-1 renal, in the assay with SK-MEL-5 melanoma and with HS 578T breast was more than 100 µM each time.
On to `COC12C(COC(=O)NCCO)C3=C(C(=O)C(C)=C(N)C3=O)N1CC1NC12` (stereo not given), for which the GI50 with ACHN renal is 13.3 µM; in the assay with CAKI-1 renal, 4.99 µM; in the assay with SK-MEL-5 melanoma, 23.9 µM. The TGI in the assay with ACHN renal is 142 µM; in the assay with PC-3 prostate it was 248 µM; in the assay on A498 renal, 122 µM; in the assay with EKVX NSCLC, more than 264 µM; with NCI-H460 lung, 30.7 µM and 49.4 µM; in the assay with HCT-15 colon it was more than 264 µM. The TGI is 49.9 µM in the assay with UACC-62 melanoma; 28.2 µM and 21.7 µM in the assay on CAKI-1 renal; 45 µM and 58.2 µM with SK-MEL-5 melanoma; more than 264 µM with HS 578T breast.
Turning to `CC(C)C[C@@H]1NC(=O)[C@@H]2CCCN2C(=O)[C@@H]2CCCN2C(=O)[C@H](CC(C)C)NC(=O)[C@H](CO)NC(=O)[C@H](CCCCN)NC(=O)[C@H]([C@H](C)O)NC(=O)[C@@H]2CSSC[C@@H](NC1=O)C(=O)N[C@@H](Cc1ccccc1)C(=O)N1CCC[C@H]1C(=O)N[C@@H](CC(=O)O)C(=O)NCC(=O)N[C@@H](CCCN=C(N)N)C(=O)N2` (cyclo(C[aThr]KSLPPL[dC]FPDGR); disulfide 1-9), the GI50 in the assay with ACHN renal is more than 50 µM; with PC-3 prostate, more than 50 µM; in the assay on A498 renal, 13.2 µM; in the assay with EKVX NSCLC it was more than 50 µM; in the assay on NCI-H460 lung it was more than 50 µM; in the assay on HCT-15 colon, more than 50 µM. The GI50 in the assay on UACC-62 melanoma, in the assay on CAKI-1 renal, in the assay on SK-MEL-5 melanoma and in the assay with HS 578T breast was more than 50 µM in each case. For the same compound, the TGI in the assay with ACHN renal was more than 50 µM; in the assay with PC-3 prostate it was more than 50 µM; in the assay with A498 renal, 33.5 µM; in the assay with EKVX NSCLC, more than 50 µM; in the assay with NCI-H460 lung, more than 50 µM; with HCT-15 colon, more than 50 µM. For the same compound, the TGI in the assay on UACC-62 melanoma, in the assay with CAKI-1 renal, in the assay on SK-MEL-5 melanoma and in the assay on HS 578T breast was more than 50 µM in each case.
For the compound `COc1ccc(C(O)c2cc3c(N)c(C(=O)Nc4cccc5ccccc45)sc3nc2C)cc1` (stereo not given), the GI50 in the assay on ACHN renal was 0.55 µM; in the assay with PC-3 prostate, 0.47 µM; with A498 renal, 0.2 µM; in the assay on EKVX NSCLC, 0.486 µM; in the assay on NCI-H460 lung it was 0.332 µM; in the assay with HCT-15 colon, 0.326 µM. In addition, the GI50 in the assay on UACC-62 melanoma was 0.627 µM; in the assay with CAKI-1 renal, 0.352 µM; with SK-MEL-5 melanoma it was 0.327 µM; in the assay with HS 578T breast, 0.319 µM. Further, the TGI in the assay with ACHN renal was more than 55.6 µM; in the assay on PC-3 prostate it was more than 100 µM; with A498 renal, 0.676 µM; in the assay on EKVX NSCLC it was more than 100 µM; with NCI-H460 lung, 5.93 µM; in the assay on HCT-15 colon it was more than 48.7 µM. Moreover, the TGI is more than 53.2 µM with UACC-62 melanoma, more than 100 µM in the assay with CAKI-1 renal, 1.25 µM in the assay on SK-MEL-5 melanoma and more than 100 µM in the assay with HS 578T breast.
Regarding `OCC1CC[N-]CC1.OCC1CC[N-]CC1.[Cl][Pt+2]([Cl])([Cl])[Cl]`, the GI50 in the assay with ACHN renal was 38.8 µM; in the assay on A498 renal it was 95.3 µM; in the assay on EKVX NSCLC, 30.7 µM; with NCI-H460 lung, 27.9 µM; with HCT-15 colon, 27.8 µM; with UACC-62 melanoma, 29.4 µM. Besides, the GI50 with CAKI-1 renal is 20.3 µM; in the assay on SK-MEL-5 melanoma, 34.5 µM; in the assay with HS 578T breast it was 45.8 µM. In addition, the values for the TGI with PC-3 prostate, in the assay on NCI-H460 lung and in the assay with CAKI-1 renal were 73 µM, 95.7 µM and 81.5 µM, respectively.
Consider `Nc1nc(=S)c2ncn(C3OC(COP(=O)(O)O)C(O)C3O)c2[nH]1` (stereo not given), for which the GI50 in the assay on ACHN renal is 1.99 µM; in the assay with PC-3 prostate it was 3.44 µM; in the assay on A498 renal it was 0.631 µM; in the assay on EKVX NSCLC, 2.34 µM; with NCI-H460 lung, 0.562 µM; with HCT-15 colon it was 1.72 µM. Also, the GI50 was 0.539 µM with UACC-62 melanoma, 0.544 µM in the assay with CAKI-1 renal, 3.25 µM with SK-MEL-5 melanoma and 6.36 µM in the assay with HS 578T breast. For the same compound, the TGI in the assay on ACHN renal is more than 100 µM; with PC-3 prostate, more than 100 µM; in the assay on A498 renal it was 9.24 µM; in the assay on EKVX NSCLC it was more than 100 µM; with NCI-H460 lung, 10.9 µM; with HCT-15 colon, more than 100 µM. Further, the TGI in the assay with UACC-62 melanoma was 6.14 µM; with CAKI-1 renal it was more than 100 µM; with SK-MEL-5 melanoma it was 11.7 µM; with HS 578T breast, more than 100 µM.

The values are drawn from PubChem BioAssay (NCI).
